Assay results: patent US5248691A, “Furanoindolines” (Eli Lilly and Company, priority 1992, dated 1993)
In brackets after ≈: the same amount, converted by molar mass. Read-outs that look alike come from different tables or passages of the source.

Columns and labels:
[1] = system: human squamous cell lung carcinoma (T222); test: In vitro cytotoxicity, [3H]leucine uptake, T222 cells; format: cell-based; conditions: for IC50: read-out: IC50 (50% cytotoxic concentration)
Description: (§1) The cytotoxicities of 4-12 were determined by incubation (48 hours) of drug with a human squamous cell lung carcinoma (T222) and percent inhibition determined by measurement of [^3 H]leucine uptake. T222 (Masui, et al. Cancer, 44(3): 1002-1007, 1984) human squamous carcinoma and P3/UCLA (Varki, et al., Cancer Res. 44: 681-687, 1984) human lung carcinoma cells were grown in DMEM medium supplemented with 10% fetal bovine serum and 50 ug/mL gentamicin using standard tissue culture techniques. 1×10^4 target cells were distributed in each well of 96 well tissue culture plates and incubated in leucine deficient medium (leucine free DMEM plus 13 ug/mL L-leucine, 29.2 ug/mL L glutamine, 50 ug/mL gentamicin and 10% dialyzed fetal calf serum) for 16 hours at 37° C. in 5% CO2. The medium was then removed aseptically and compound dilutions were added in 200 ul of leucine deficient medium. Following an additional 48 hour incubation, 4 uCi ^3 H-leucine (NEN, Boston, Mass.) were added to each well and the plates were returned to the incubator for 24 hours. Radioactivity incorporated into macromolecules was determined using an automated cell harvester and liquid scintillation techniques. Data were evaluated as percent reduction in incorporation of radioactivity relative to controls incubated in medium without compound to yield an 50% cytotoxic concentration (IC50).

[2] = system: human lung adenocarcinoma (P3/UCLA); test: In vitro cytotoxicity, similar protocol, P3/UCLA cells; format: cell-based
Description: as §1

[3] = system: T222 tumor; test: Nude mouse xenograft, T222 tumor burden (i.v.); format: in vivo, nude mice; set-up: inhibition of growth of tumors (in words): dose or concentration left out as unconfirmed; conditions: for Number of Deaths/Number of Mice / Percent Inhibition of Tumor Growth: days 3, 5 and 7
Description: Prior to each xenograft experiment, cells were collected by treatment with Trypsin/EDTA (Gibco, Life Technologies, Grand Island, N.Y.) and washed with supplemented DMEM and finally suspended in Hanks balanced salt solution. 1×10^7 cells were injected s.c. into the flank of young adult female nude mice (Charles River Breeding Laboratories, Boston, Mass.). The mice were treated by i.v. injection in the tail vein at various time points. Tumor measurements were taken in two dimensions and converted to an estimate of mass using the formula [(length) (width^2)/2] as described by Geran, et al.. Cancer Chemother. Rep., 3:1-103, 1972. Control groups contained 10 mice with test groups containing 5 mice each. The Student test was used to evaluate differences between mean tumor masses.

[4] = system: minor groove of double stranded DNA; conditions: cited from earlier work
[5] = single intravenous subtherapeutic dose; healthy mice; cited from earlier work
[6] = T222 human squamous cell lung carcinoma, 48 hours incubation, [3H]leucine uptake

SMILES: Cc1coc2c(O)cc3c(c12)C(CCl)CN3C(=O)c1cc2cc(NC(=O)c3cc4ccccc4o3)ccc2o1 (single isomer, unassigned; (+)) [Compound 8]
- IC50 [1, 6]: 0.37 ng/mL (≈ 0.684 nM)

SMILES: Cc1coc2c(O)cc3c(c12)C(CCl)CN3C(=O)c1cc2cc(NC(=O)c3cc4ccccc4o3)ccc2s1 (single isomer, unassigned; (+)) [Compound 11]
- IC50 [1, 6]: 0.26 ng/mL (≈ 0.467 nM)

SMILES: Cc1coc2c(O)cc3c(c12)C(CCl)CN3C(=O)c1cc2cc(NC(=O)c3cc4ccccc4s3)ccc2o1 (single isomer, unassigned; (+)) [Compound 9]
- IC50 [1, 6]: 0.56 ng/mL (≈ 1.01 nM)

SMILES: Cc1coc2c(O)cc3c(c12)C(CCl)CN3C(=O)c1cc2cc(NC(=O)c3cc4ccccc4o3)ccc2[nH]1 (single isomer, unassigned; (+)) [Compound 5]
- IC50 [1, 6]: 0.15 ng/mL (≈ 0.278 nM)

SMILES: Cc1coc2c(O)cc3c(c12)C(CCl)CN3C(=O)c1cc2cc(NC(=O)c3cc4ccccc4[nH]3)ccc2[nH]1 (single isomer, unassigned; (+)) [Compound 4]
- IC50 [2]: 0.27 ng/mL (≈ 0.501 nM)
- IC50 [1, 6]: 0.17 ng/mL (≈ 0.315 nM)
- Number of Deaths/Number of Mice ([3]; 0.05 mg/kg i.v.): 0/5
- Percent Inhibition of Tumor Growth ([3]; 0.05 mg/kg i.v.): 68%
- Number of Deaths/Number of Mice ([3]; 0.1 mg/kg i.v.): 0/5
- Percent Inhibition of Tumor Growth ([3]; 0.1 mg/kg i.v.): 73%
- Number of Deaths/Number of Mice ([3]; 0.2 mg/kg i.v.): 1/5
- Percent Inhibition of Tumor Growth ([3]; 0.2 mg/kg i.v.): 85%
- Number of Deaths/Number of Mice ([3]; 0.4 mg/kg i.v.): 5/5
- inhibition of growth of tumors (in words) ([3]; intravenously on days 3, 5 and 7, T222 burden injected s.c. at day 0): inhibited the growth of tumors

SMILES: Cc1coc2c(O)cc3c(c12)C(CCl)CN3C(=O)c1cc2cc(NC(=O)c3cc4ccccc4s3)ccc2s1 (single isomer, unassigned; (+)) [Compound 12]
- IC50 [1, 6]: 0.2 ng/mL (≈ 0.349 nM)

SMILES: Cc1coc2c(O)cc3c(c12)C(CCl)CN3C(=O)c1cc2cc(NC(=O)c3cc4ccccc4s3)ccc2[nH]1 (single isomer, unassigned; (+)) [Compound 6]
- IC50 [1, 6]: 0.2 ng/mL (≈ 0.36 nM)

SMILES: Cc1coc2c(O)cc3c(c12)C(CCl)CN3C(=O)c1cc2cc(NC(=O)c3cc4ccccc4[nH]3)ccc2o1 (single isomer, unassigned; (+)) [Compound 7]
- IC50 [1, 6]: 0.23 ng/mL (≈ 0.426 nM)

SMILES: Cc1coc2c(O)cc3c(c12)C(CCl)CN3C(=O)c1cc2cc(NC(=O)c3cc4ccccc4[nH]3)ccc2[nH]1 (stereo not drawn) [enantiomer of 4]
- antineoplastic potency relative to 4 ([1]; T222 cell line, compared with 4): approximately ten fold less potent

SMILES: CCC1(O)CC2CN(CCc3c([nH]c4ccccc34)C(C(=O)OC)(c3cc4c(cc3OC)N(C)C3C(O)(C(=O)NN)C(O)C5(CC)C=CCN6CCC43C65)C2)C1 (stereo not shown) [4-desacetylvinblastine-3-carboxhydrazide, reference compound]
- IC50 ([1]; Homo sapiens, T222, 48 h): 3 ng/mL (≈ 3.9 nM)

SMILES: Cc1coc2c(O)cc3c(c12)C(CCl)CN3C(=O)c1cc2cc(NC(=O)c3cc4ccccc4[nH]3)ccc2s1 (single isomer, unassigned; (+)) [Compound 10]
- IC50 [1, 6]: 0.29 ng/mL (≈ 0.522 nM)

SMILES: COc1c(O)c2c(c3cc(C(=O)N4CCc5c4c(O)c(OC)c4[nH]c(C(=O)N6CC7CC78C6=CC(=O)c6[nH]cc(C)c68)cc54)[nH]c13)CCN2C(N)=O (stereo not shown) [CC-1065]
- DNA binding [4]: binds covalently to the minor groove of double stranded DNA
- delayed deaths / hepatotoxicity [5]: led to delayed deaths of healthy mice as a result of the hepatotoxicity
